CO[C@H]1C[C@@H]2CC[C@@H](C)[C@@](O)(O2)C(=O)C(=O)N2CCCC[C@H]2C(=O)O[C@H]([C@H](C)C[C@@H]2CC[C@@H](O)[C@H](OC)C2)CC(=O)[C@H](C)/C=C(\C)[C@@H](O)[C@@H](OC)C(=O)[C@H](C)C[C@H](C)/C=C/C=C/C=C/1C
solubility (mole fraction)
Settings	in acetone	in chloroform	in dichloromethane	in ethanol	in methanol
295 K	0.00316	0.00272	0.0019	0.00137	0.00072
300 K	0.00321	0.00289	0.00201	0.00143	0.00088
305 K	0.00343	0.00311	0.0022	0.00163	0.00107
310 K	0.00388	0.00325	0.00246	0.00184	0.00123
315 K	0.00433	0.00346	0.00271	0.00197	0.00143
320 K	0.0047	0.00369	0.00279	0.0021	0.00146
325 K	0.00487	0.00386	0.00306	0.00237	0.00163
330 K	0.00511	0.00413	0.00333	0.00259	0.00171
335 K	0.00545	0.00437	0.00351	0.00275	0.00183
340 K	0.00627	0.00458	0.00397	0.00291	0.00188
345 K	0.00721	0.00495	0.00433	0.00317	0.00205

— BigSolDB 2.1
